Values joined by “and” are separate entries in the source; they are usually repeats but may differ in a detail not shown here. Equal entries are not always repeated.
Legend:
Male mice (C57BI/6N) [1] = assay: Elevated Plus Maze test (EPM); format: in vivo; conditions: for total distance travelled in the EPM: compared to control
Experimental: (§1) Piperine was isolated from Piper nigrum as described by Zaugg et al. (2010) and obtained from SigmaAldrich (Vienna, Austria), respectively. Piperine derivatives were synthesized as described above. Stock solutions (1mg/10 µl) were prepared in DMSO (Dimethyl Sulfoxide, Sigma, Austria).Working concentrations were adjusted by dilution with 0.9% sodiumchloride. pH was adjusted to 7.2-7.4 with NaOH. For better solubility 3% of Tween80 was added to all solutions. All solutions were freshly prepared every day prior to experiments. Care was taken for equal amounts of DMSO in the actein and control solutions.
(§2) Male mice (C57BI/6N) were obtained from Charles River Laboratories (Germany). For breeding and maintenance mice were group housed with free access to food and water. Temperature was fixed to 23±1 °C and 60% humidity with a 12 h light-dark cycle (lights on 0700-1900 hours). Male mice at 3-6 months age were tested in all experiments. Every effort was taken to minimize the number of animals used (Khom et al., 2010).
The animals's behavior was tested over 5 min on an elevated plus maze 1 m above ground consisting of two closed and two open arms, each 50x5 cm in size (Khom et al., 2010). The test instrument was built from gray PVC; the height of closed arm walls was 20 cm. Illumination was set to 180 lux. Animals were placed in the center, facing an open arm. Analysis of open and closed arm entries and time on open arm was automatically done with Video-Mot 2 equipment and software (Khom et al., 2010).

PTZ-induced seizures = assay: Seizure threshold by PTZ tail-vein infusion; format: in vivo, mice; conditions: for effects on seizure threshold: PTZ 30 min after i.p. injection; for seizure threshold: 30 min after i.p. injection
Experimental: as §1, §2
Seizure threshold was determined by PTZ tail-vein infusion on freely moving animals at a rate of 100 µl/min ([…] PTZ in saline, pH 7.4). […] Animals were immediately killed by cervical displacement after the first generalized seizure. The seizure threshold dose was calculated from the infused volume in relation to body weight (Loacker et al. 2007). Piperine and piperine derivatives were applied at doses from 0.1 to 30 mg/kg 30 min before PTZ infusion. Control animals were pretreated with 10 % DMSO in saline containing 3 % Tween 80 (i. e. the solvent for all piperine doses).

[2] = target: human TRPV1 receptor (hTRPV1) (Homo sapiens, UniProt Q8NER1); assay: Activation of cation current through TRPV1 expressed in Xenopus oocytes; format: cell-based; conditions: 300 µM applied to oocytes, Fig. 4
Sequence of human TRPV1 receptor (hTRPV1) (Q8NER1 whole entry): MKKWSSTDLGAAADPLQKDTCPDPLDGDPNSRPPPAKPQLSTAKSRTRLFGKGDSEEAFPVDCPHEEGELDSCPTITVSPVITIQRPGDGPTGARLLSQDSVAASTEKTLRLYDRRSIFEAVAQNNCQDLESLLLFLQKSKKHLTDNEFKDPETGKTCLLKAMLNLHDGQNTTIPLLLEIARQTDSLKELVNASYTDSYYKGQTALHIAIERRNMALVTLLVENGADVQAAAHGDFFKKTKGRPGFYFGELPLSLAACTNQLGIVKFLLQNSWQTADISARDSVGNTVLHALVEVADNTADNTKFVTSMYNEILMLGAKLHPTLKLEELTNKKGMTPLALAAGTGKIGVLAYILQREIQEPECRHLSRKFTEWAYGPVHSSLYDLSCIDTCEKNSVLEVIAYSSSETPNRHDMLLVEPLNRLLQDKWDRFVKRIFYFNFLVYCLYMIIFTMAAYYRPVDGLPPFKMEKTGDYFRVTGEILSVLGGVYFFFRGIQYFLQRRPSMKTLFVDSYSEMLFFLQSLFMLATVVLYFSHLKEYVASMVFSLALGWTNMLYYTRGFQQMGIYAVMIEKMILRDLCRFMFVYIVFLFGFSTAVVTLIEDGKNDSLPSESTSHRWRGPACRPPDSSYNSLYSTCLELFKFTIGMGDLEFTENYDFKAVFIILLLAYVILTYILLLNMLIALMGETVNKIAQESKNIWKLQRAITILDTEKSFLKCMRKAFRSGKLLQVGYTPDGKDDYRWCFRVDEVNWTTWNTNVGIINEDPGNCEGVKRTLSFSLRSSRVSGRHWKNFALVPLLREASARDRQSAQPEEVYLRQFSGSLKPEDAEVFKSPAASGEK
Experimental: cRNA encoding for the human TRPV1 receptor (hTRPV1) was injected into Xenopus oocytes as previously described (Hu et al. 2004).

[3] = target: GABAA channels composed of α1β2γ2 subunits (Homo sapiens, UniProt P14867+P18507+P47870); assay: Modulation of IGABA, two-microelectrode voltage clamp in Xenopus laevis oocytes; format: cell-based; conditions: α1β2γ2, GABA EC5-10, Fig. 2
Sequence of GABAA channels composed of α1β2γ2 subunits (P14867 28-456): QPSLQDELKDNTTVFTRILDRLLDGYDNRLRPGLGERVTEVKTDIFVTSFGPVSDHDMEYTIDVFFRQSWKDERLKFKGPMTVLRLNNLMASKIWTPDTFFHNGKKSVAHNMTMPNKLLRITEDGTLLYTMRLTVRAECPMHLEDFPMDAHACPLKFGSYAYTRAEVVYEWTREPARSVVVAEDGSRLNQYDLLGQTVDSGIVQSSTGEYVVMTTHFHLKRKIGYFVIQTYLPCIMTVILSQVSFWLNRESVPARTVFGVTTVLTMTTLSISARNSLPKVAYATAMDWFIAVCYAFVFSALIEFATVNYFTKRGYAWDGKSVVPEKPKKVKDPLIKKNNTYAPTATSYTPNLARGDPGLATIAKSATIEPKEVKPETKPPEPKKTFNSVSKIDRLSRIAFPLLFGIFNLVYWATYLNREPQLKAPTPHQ
Sequence of GABAA channels composed of α1β2γ2 subunits (P47870 25-512 limits assumed): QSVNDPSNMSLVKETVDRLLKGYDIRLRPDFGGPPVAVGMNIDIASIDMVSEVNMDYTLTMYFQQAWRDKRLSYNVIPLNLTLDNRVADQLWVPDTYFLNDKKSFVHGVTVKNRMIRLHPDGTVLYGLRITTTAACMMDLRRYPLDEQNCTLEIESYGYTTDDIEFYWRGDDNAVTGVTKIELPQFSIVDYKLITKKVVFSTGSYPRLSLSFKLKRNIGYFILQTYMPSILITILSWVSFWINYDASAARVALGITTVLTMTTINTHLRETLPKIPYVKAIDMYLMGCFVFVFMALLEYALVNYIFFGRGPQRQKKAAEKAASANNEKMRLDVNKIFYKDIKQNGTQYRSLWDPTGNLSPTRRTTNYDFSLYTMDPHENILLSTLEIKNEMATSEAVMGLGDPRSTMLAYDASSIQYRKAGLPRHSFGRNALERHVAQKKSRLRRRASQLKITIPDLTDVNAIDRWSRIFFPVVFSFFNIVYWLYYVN
Sequence of GABAA channels composed of α1β2γ2 subunits (P18507 40-475): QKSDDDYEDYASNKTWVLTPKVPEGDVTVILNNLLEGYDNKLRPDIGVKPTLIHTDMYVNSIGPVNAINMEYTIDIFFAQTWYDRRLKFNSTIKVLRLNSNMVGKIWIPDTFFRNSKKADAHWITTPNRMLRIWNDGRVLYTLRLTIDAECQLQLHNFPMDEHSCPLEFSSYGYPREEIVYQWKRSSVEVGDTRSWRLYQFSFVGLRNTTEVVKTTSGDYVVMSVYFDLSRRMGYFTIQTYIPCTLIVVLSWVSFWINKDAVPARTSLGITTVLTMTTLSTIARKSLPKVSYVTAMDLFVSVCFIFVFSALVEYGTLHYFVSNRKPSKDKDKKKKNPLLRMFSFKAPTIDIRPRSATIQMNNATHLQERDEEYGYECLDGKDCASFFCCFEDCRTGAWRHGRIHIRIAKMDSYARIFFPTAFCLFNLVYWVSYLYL
Experimental: The following paragraphs describe the preparation of oocytes expressing the specific GABAA receptor subtype composed of α1, β2 and γ2 subunits and the subsequent analysis of the concentration-response curves of the stimulation of chloride currents through GABAA receptors (IGABA).
Preparation of stage V-VI oocytes from Xenopus laevis, synthesis of capped off run-off poly(A^+) cRNA transcripts from linearized cDNA templates (pCMV vector) was performed as described (Khom et al. 2006). Briefly, female Xenopus laevis (NASCO, USA) were anaesthetised by exposing them for 15 minutes to a 0.2 % solution of MS-222 (methane sulfonate salt of 3-aminobenzoic acid ethyl ester; Sandoz) before surgically removing parts of the ovaries. Follicle membranes from isolated oocytes were enzymatically digested with 2 mg/ml collagenase (Type 1A, Sigma). One day after isolation, the oocytes were injected with about […] of DEPC- treated water (diethyl pyrocarbonate, Sigma, Germany) containing the different cRNAs (encoding for α1, β2 and γ2 subunits) at a concentration of approximately 300 - 3000 pg/µl/subunit. The amount of cRNA was determined by means of a NanoDrop ND-1000 (Kiskerbiotech, Steinfurt, Germany).
Oocytes were stored at 18°C in ND96 solution (Methfessel et al., 1986). […]
Stimulation of chloride currents by modulators of the GABAA receptor was measured at a GABA concentration eliciting between 5 and 10 % of the maximal current amplitude (EC5-10). The EC5-10 was determined at the beginning of each experiment.
Enhancement of the chloride current was defined as (I(GABA+Comp)/IGABA) - 1, where I(GABA+Comp) is the current response in the presence of a given compound (piperine or piperin derivatives) and IGABA is the control GABA current. […] Statistical significance was calculated using paired Student t-test with a confidence interval of p < 0.05 (Khom et al., 2007). […]

Male mice (C57BI/6N) [4] = assay: Open Field test (OF); format: in vivo; conditions: 30 mg/kg bodyweight; for effect on total ambulation / total distance: 30 min after i.p. injection, Fig. 11B
Experimental: as §1, §2
Ambulation was tested over 10 min in a 50x50 cm flexfield box equipped with infrared rearing detection. Illumination was set to 150 lux. Animals were video monitored and their explorative behavior was analyzed using the Actimot 2 equipment and software (TSE-systems, Bad Homburg, Germany). Arenas were subdivided into border (up to 8 cm from wall), center (20x20 cm, i.e. 16% of total area), and intermediate area according to the recommendations of EMPRESS (European Mouse Phenotyping Resource of Standardised Screens; http://empress.har.mrc.ac.uk).

Structure (SMILES)	time spent on the open arms (OA) in % of the total time (Male mice (C57BI/6N) [1]; 0.3 mg/kg bodyweight, i.p.)	effects on seizure threshold (PTZ-induced seizures; Fig. 12)	cation current through TRPV1 receptors [2]	modulation of IGABA [3]	effect on total ambulation / total distance (Male mice (C57BI/6N) [4])	further results
CCCCN(CCCC)C(=O)/C=C/C=C/c1ccc2c(c1)OCO2 [SCT-29]	not statistically significant	particularly active at low concentrations	no current was induced	positive allosteric modulatory effect by enhancing IGABA	no effect on ambulation	cation current through TRPV1 receptors ([2]; listed as SCT29): none of the derivatives SCT29, SCT64 or SCT66 induced cation currents
CC(C)N(C(=O)/C=C/C=C/c1ccc2c(c1)OCO2)C(C)C [SCT-46]			no current was induced			
CCN(CC)C(=O)/C=C/C=C/c1ccc2c(c1)OCO2 [SCT-54]		particularly active at low concentrations			no effect on ambulation	
CCCN(CCC)C(=O)/C=C/C=C/c1ccc2c(c1)OCO2 [SCT-64]	41.6 ± 3.2% and 44.2 ± 3.3%	particularly active at low concentrations	no current was induced	positive allosteric modulatory effect by enhancing IGABA	reduced the total distance	time spent on the open arms (OA) in % of the total time (Male mice (C57BI/6N) [1]; 10 mg/kg bodyweight, i.p.): 59.6 ± 4.9%; total distance travelled in the EPM (Male mice (C57BI/6N) [1]; i.p.): reducing slightly the total ambulation at doses ≥1 mg/kg bodyweight; cation current through TRPV1 receptors ([2]; listed as SCT64): none of the derivatives SCT29, SCT64 or SCT66 induced cation currents
CC(C)CN(CC(C)C)C(=O)/C=C/C=C/c1ccc2c(c1)OCO2 [SCT-66]	40.8 ± 3.2% and 38.1 ± 5.1%		no current was induced	positive allosteric modulatory effect by enhancing IGABA	reduced the total distance	time spent on the open arms (OA) in % of the total time (Male mice (C57BI/6N) [1]; 3 mg/kg bodyweight, i.p.): 46.5 ± 6.6%; total distance travelled in the EPM (Male mice (C57BI/6N) [1]; i.p.): no significant effect on ambulation; minimal effective dose (PTZ-induced seizures; Mus musculus, ip, 0.5 h, i.p., Fig. 12, read-out: doses of first significant effects on seizure threshold): ≥ 10 mg/kg; cation current through TRPV1 receptors ([2]; listed as SCT66): none of the derivatives SCT29, SCT64 or SCT66 induced cation currents
CCCCN(CCCC)C(=O)/C=C/C=C/c1cc(OC)c(OC)c(OC)c1 [SCT-68]			no current was induced			
O=C(/C=C/C=C/c1ccc2c(c1)OCO2)N1CCCCC1 [piperine, Piperine]	42.7 ± 4.4%					time spent on the open arms (OA) in % of the total time (Male mice (C57BI/6N) [1]; 0.1 mg/kg bodyweight, 30 min after i.p. injection): no significant effect; time spent on the open arms (OA) in % of the total time (Male mice (C57BI/6N) [1]; 1 mg/kg bodyweight, i.p.): 45.6 ± 6.6%; seizure threshold (PTZ-induced seizures; 3 mg/kg): 46.2 ± 5.44; seizure threshold (PTZ-induced seizures; 10 mg/kg): 48.7 ± 2.13; seizure threshold (PTZ-induced seizures; 30 mg/kg): 30.3 ± 3.43; reduction of ambulation compared to control littermates (Male mice (C57BI/6N) [4]; i.p.): more than 50%; traveled distance (total ambulation) (Male mice (C57BI/6N) [4]; i.p.): 16.5 ±3.8 m
